The values below come from ChEMBL document CHEMBL5113483, “Design and synthesis of NAD(P)H: Quinone oxidoreductase (NQO1)-activated prodrugs of 23-hydroxybetulinic acid with enhanced antitumor properties” (Eur J Med Chem, 2022).

The nature of experiment [1]: Selectivity index, ratio of IC50 for antiproliferative activity against human HT-29 cells overexpressing NQO1 in presence of dicoumarol to antiproliferative activity against human HT-29 cells overexpressing NQO1. The experiment is classed as functional.
The target in experiment [2] is NAD(P)H dehydrogenase [quinone] 1 (Homo sapiens) (UniProt P15559). Put plainly: Substrate activity at lyophilized human NQO1 assessed as compound decomposition measured after 6 hrs by HPLC analysis.
Experiment [3] deals with HT-29. Put plainly: Induction of apoptosis in human HT-29 cells assessed as viable cells at 1 uM incubated for 48 hrs by Annexin V-FITC/PI staining based flow cytometry analysis (Rvb= 96.54%). It counts as functional. Particulars: read-out: Activity. In general terms: In flow cytometry, cells or beads pass a laser one at a time.
The test system of experiment [4] is HT-29. Put plainly: Induction of apoptosis in human HT-29 cells assessed as viable cells at 4 uM incubated for 48 hrs by Annexin V-FITC/PI staining based flow cytometry analysis (Rvb= 96.54%). It counts as functional. Particulars: read-out: Activity.
Experiment [5] has as its system HT-29. Put plainly: Induction of apoptosis in human HT-29 cells assessed as early apoptotic cells at 4 uM incubated for 48 hrs by Annexin V-FITC/PI staining based flow cytometry analysis (Rvb= 2.41%). The experiment is classed as functional.
Experiment [6] concerns HT-29. Put plainly: Induction of apoptosis in human HT-29 cells assessed as late apoptotic cells at 4 uM incubated for 48 hrs by Annexin V-FITC/PI staining based flow cytometry analysis (Rvb= 1.04%). The experiment is classed as functional.
Experiment [7] has as its system HT-29. Kind of experiment: Induction of apoptosis in human HT-29 cells assessed as dead cells at 4 uM incubated for 48 hrs by Annexin V-FITC/PI staining based flow cytometry analysis (Rvb= 0.01%). The experiment is classed as functional.
In experiment [8] the test system is HT-29. Put plainly: Induction of cell cycle arrest in human HT-29 cells assessed as accumulation of cells at G1 phase at 2 uM incubated for 48 hrs by RNaeA/propidium iodide based flow cytometry analysis (reference value: 62.98 %). The experiment is classed as functional.
Experiment [9] has as its system HT-29. Kind of experiment: Induction of cell cycle arrest in human HT-29 cells assessed as accumulation of cells at G1 phase at 4 uM incubated for 48 hrs by RNaeA/propidium iodide based flow cytometry analysis (reference value: 62.98 %). It counts as functional.
Experiment [10] relates to HT-29. Kind of experiment: Induction of cell cycle arrest in human HT-29 cells assessed as accumulation of cells at G2 phase at 4 uM incubated for 48 hrs by RNaeA/propidium iodide based flow cytometry analysis (reference value: 13.96 %). It counts as functional.
The subject of experiment [11] is HT-29. Kind of experiment: Induction of apoptosis in human HT-29 cells assessed as upregulation of caspase-3 protein expression incubated for 48 hrs by Western blot analysis. Particulars: dose 1-4 µM, DDE = dose-dependent effect. It counts as functional, cell-based. (Immunoblotting shows a protein as a band on a membrane.)
The subject of experiment [12] is HT-29. Kind of experiment: Induction of mitochondrial membrane potential loss in human HT-29 cells assessed as JC-1 monomer formation by measuring increase in green intensity at 2 uM incubated for 48 hrs by JC-1 staining based flow cytometry analysis (reference value: 6.54 %). The experiment is classed as functional.
In experiment [13] the test system is HT-29. Kind of experiment: Induction of mitochondrial membrane potential loss in human HT-29 cells assessed as healthy cells at 4 uM incubated for 48 hrs by JC-1 staining based flow cytometry analysis (reference value: 93.4 %). It counts as functional.

NAD(P)H dehydrogenase [quinone] 1 (Homo sapiens), sequence (P15559 whole entry): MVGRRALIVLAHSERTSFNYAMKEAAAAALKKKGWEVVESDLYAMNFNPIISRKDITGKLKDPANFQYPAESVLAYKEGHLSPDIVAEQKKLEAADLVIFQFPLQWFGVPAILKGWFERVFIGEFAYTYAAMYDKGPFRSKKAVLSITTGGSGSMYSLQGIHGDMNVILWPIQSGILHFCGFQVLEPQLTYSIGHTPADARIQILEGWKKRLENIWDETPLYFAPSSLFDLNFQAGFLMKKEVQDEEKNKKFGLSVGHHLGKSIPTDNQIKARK

Turning to `C=C(C)[C@@H]1CC[C@]2(C(=O)OCCOC(=O)CCC(=O)OCc3cn(C)c4c3C(=O)C(OC)=CC4=O)CC[C@]3(C)[C@H](CC[C@@H]4[C@@]5(C)CC[C@H](O)[C@@](C)(CO)[C@@H]5CC[C@]43C)[C@@H]12`, in experiment [1], the “Ratio IC50” value stood at 4.9. For the same compound, the Activity came to 50% in [2]; 32.28% in the experiment on HT-29 [5]; 22.58% in the experiment with HT-29 [6]; 6.74% in the experiment on HT-29 [7]; 52.73% in the experiment with HT-29 [8]; 39.61% in the experiment with HT-29 [9]. Besides, the Activity in the experiment on HT-29 [10] was 32.73%; in the experiment with HT-29 [11] it was “Dde”; with HT-29 [12], 33.41%; in the experiment on HT-29 [13], 55.52%. For the same compound, the viability at 1 µM in the experiment with HT-29 [3] turned out to be 75.5%. Besides, in the experiment on HT-29 [4], the viability at 4 µM was 38.4%.
